Results on 21 compounds are retold here after patent US10080366B2, “Agent for increasing sugar content in fruit” (RIKEN, priority 2012, dated 2018).

Where two headings read alike, the source gives them in different places.

The test system of test [1] is clusters of grape (variety: Crimson). As to the kind of experiment: Estimated transpiration ratio of grape clusters (Example 9). It counts as in vivo. To be noted: 10 g/L; 8 days after treatment.
Test [2] relates to harvested fruit of grape (variety: Barikan). The protocol:
The fruit of grape was maintained in an air-conditioned greenhouse (temperature: 25° C.), and measured for the mass over time. The sugar content of the fruit was measured before the application and 8 days after the application with a sugar content meter. Next, on the assumption that the change in the mass of the fruit was entirely due to the change in water content, calculated values of the amount of decrease in mass and the sugar content on the date (June 2) of the application were determined […] by using the following calculation formula. (Calculated as follows: the sugar content (%) calculated value))=the sugar content (%) before application×the mass (g) on the date of application/the mass (g) on the date of measurement))

The next test concerns Tomato. The following applies: 6 days after treatment.
The subject of another test is Mikan. To be noted: 6 days after treatment.
For test [3], the system named is fruit of grape (variety: Red Globe). The protocol: An agent for increasing a sugar content in a fruit (containing Sorbon T-20 as a spreader/sticker at a final concentration of 200 μL/L) diluted with water to have a potassium hydrogen carbonate concentration of 10 g/L was prepared. The mass of fruit of grape (variety: Red Globe) purchased on the market was measured. Then, the prepared agent for increasing a sugar content in a fruit was applied by spraying to the fruit of grape. Then, the fruit of grape was allowed to stand in an air-conditioned greenhouse (temperature: 25° C.), and the mass was measured over time (date of application: Apr. 27, 2011; dates of test: May 2, 2011, May 6, 2011, May 9, 2011, May 11, 2011, May 13, 2011, and May 16, 2011). In addition, as a control, the mass of untreated grape was measured on each date of measurement in the same manner.
On the basis of the measured mass, the estimated amount (cumulative value) of transpiration and the estimated amount of transpiration per day were calculated. The results are shown in Tables 5 and 6 and FIGS. 10 and 11.
Note that the vertical axis in FIG. 10 represents the mass (g) of the fruit of grape on each of the dates of measurement per 100 g of the fruit of grape on the date of application, and the vertical axis in FIG. 11 represents the estimated amount (g) of transpiration on each of the dates of measurement per 100 g of the fruit of grape on the date of application. The estimated amount (g) of transpiration on each of the dates of measurement per 100 g of the fruit of grape on the date of application=(the mass (g) of the fruit of grape on the date of application−the mass (g) of the fruit of grape on the date of measurement)/the mass of the fruit of grape on the date of application×100

Setting [4] is: 10 g/L, 25° C., mass 100 g on date of application.

Consider `O=C([O-])C(O)C(O)C(=O)[O-].[K+].[K+]` (racemic) [DL-Potassium tartrate, reference compound], for which, in test [1], the “Estimated transpiration ratio (%) Average” value is 22% and the “Estimated transpiration ratio (%) First” value is given as 22%.
As to `CC(O)C(=O)[O-].[Na+]` (racemic) [DL-Sodium lactate, reference compound], in test [1], the “Estimated transpiration ratio (%) Average” value is listed as 26%, the “Estimated transpiration ratio (%) First” value is recorded as 26% and the “Estimated transpiration ratio (%) Second” value is on record as 25%.
Regarding `N.N.O=C(O)O` [Ammonium carbonate, reference compound], in test [1], the “Estimated transpiration ratio (%) Average” value was 26%, the “Estimated transpiration ratio (%) First” value is 25% and the “Estimated transpiration ratio (%) Second” value was 28%.
Turning to `N.N.O=S(=O)(O)O` [Ammonium sulfate, reference compound], in test [1], the “Estimated transpiration ratio (%) Average” value is listed as 22%, the “Estimated transpiration ratio (%) First” value is listed as 21% and the “Estimated transpiration ratio (%) Second” value is 23%.
Take `[Ca+2].[Cl-].[Cl-]` [Calcium chloride, reference compound]: the “Sugar content (%) 8 days later, actually measured value” in test [2] (10 g/L, 25° C.) was found to be 20.0%. Besides, in test [2] (setting [4]), the “Mass (g) 6 days later (Jun. 8)” value amounted to 86.3 g and the “Mass (g) 8 days later (Jun. 10)” value is reported as 81.9 g. Also, the “action to increase the sugar content in the fruit (comparison)” value in test [2] (10 g/L, 8 days) is “almost the same as that of the untreated group”. Moreover, the “Sugar content (%) 8 days later, calculated value” in test [2] (10 g/L, calculated from decrease in mass) is 20.8%. For the same compound, in test [2] (before application), the “Sugar content (%) on date of application (Jun. 2)” value was determined as 17.0%.
For `O=P([O-])([O-])O.[K+].[K+]` [Dipotassium hydrogen phosphate, dipotassium hydrogen phosphate], in test [1], the “Estimated transpiration ratio (%) Average” value is on record as 28% and the “Estimated transpiration ratio (%) First” value is given as 28%.
On to `O=P([O-])([O-])O.[Na+].[Na+]` [Disodium hydrogen phosphate, disodium hydrogen phosphate], for which, in test [1], the “Estimated transpiration ratio (%) Average” value is 31%, the “Estimated transpiration ratio (%) First” value is recorded as 35% and the “Estimated transpiration ratio (%) Second” value was 28%.
`O=C([O-])CCC(=O)[O-].[Na+].[Na+]` [Disodium succinate]: in test [1], the “Estimated transpiration ratio (%) Average” value is 31% and the “Estimated transpiration ratio (%) First” value is on record as 31%.
`O=C([O-])[O-].[Mg+2]` [Magnesium carbonate, magnesium carbonate]: in test [1], the “Estimated transpiration ratio (%) Average” value is on record as 32% and the “Estimated transpiration ratio (%) First” value was 32%.
Take `[Cl-].[Cl-].[Mg+2]` [Magnesium chloride, reference compound]: in test [1], the “Estimated transpiration ratio (%) Average” value is recorded as 25% and the “Estimated transpiration ratio (%) First” value is on record as 25%.
With `O=S(=O)([O-])[O-].[Mg+2]` [Magnesium sulfate, reference compound], in test [1], the “Estimated transpiration ratio (%) Average” value is 23% and the “Estimated transpiration ratio (%) First” value is given as 23%.
For `CC(=O)[O-].[K+]` [Potassium acetate, potassium acetate], in test [1], the “Estimated transpiration ratio (%) Average” value is listed as 35%, the “Estimated transpiration ratio (%) First” value is 35% and the “Estimated transpiration ratio (%) Second” value was 35%.
`[Cl-].[K+]` [Potassium chloride, reference compound]: in test [1], the “Estimated transpiration ratio (%) Average” value is reported as 25% and the “Estimated transpiration ratio (%) First” value is given as 25%.
Take `O=S(=O)([O-])[O-].[K+].[K+]` [Potassium sulfate, reference compound]: in test [1], the “Estimated transpiration ratio (%) Average” value was 24% and the “Estimated transpiration ratio (%) First” value is 24%.
For the compound `CC(=O)[O-].O.O.O.[Na+]` [Sodium acetate trihydrate], in test [1], the “Estimated transpiration ratio (%) Average” value is on record as 34%, the “Estimated transpiration ratio (%) First” value is listed as 35% and the “Estimated transpiration ratio (%) Second” value was 33%.
Regarding `CC(=O)[O-].[Na+]` [Sodium acetate, sodium acetate], the “Ratio (%) of decrease in body weight of fruit” value (“Ratio (%) of decrease” below) in the test with Tomato (dilution ratio 50 (20 g/L)) is 14.5%; in the test with Tomato (dilution ratio 100 (10 g/L)) it was 15.6%; in the test on Mikan (dilution ratio 50 (20 g/L)), 11.4%; with Mikan (dilution ratio 100 (10 g/L)), 11.2%.
For `O=C([O-])[O-].[Na+].[Na+]` [Sodium carbonate, sodium carbonate], the results for the “Ratio (%) of decrease” value in the test with Tomato (dilution ratio 100 (10 g/L)) and in the test on Mikan (dilution ratio 100 (10 g/L)) were 12.7% and 10.4%, respectively. The “Estimated amount (g) of transpiration per 100 g of fruit on date of application” value in test [3] (5 days later) is listed as 14.1 g; in test [3] (9 days later), 24.1 g; in test [3] (12 days later), 30.3 g; in test [3] (14 days later), 34.6 g; in test [3] (16 days later), 38.7 g; in test [3] (19 days later), 44.5 g. The “Mass (g) of fruit per 100 g of fruit on date of application” value (“Mass (g) of fruit per 100 g of fruit” for short) in test [3] (5 days later (applied Apr. 27)) turned out to be 85.9 g; in test [3] (9 days later), 75.9 g; in test [3] (12 days later), 69.7 g; in test [3] (14 days later) it was 65.4 g; in test [3] (16 days later), 61.3 g; in test [3] (19 days later) it was 55.5 g. The “Estimated transpiration ratio (%) Average” value in test [1] was 32%. For the same compound, the “Estimated transpiration ratio (%) First” value in test [1] was 32%.
Turning to `[Cl-].[Na+]` [Sodium chloride, reference compound], in test [1], the “Estimated transpiration ratio (%) Average” value is 22% and the “Estimated transpiration ratio (%) First” value is reported as 22%.
Consider `O=C([O-])O.[Na+]` [Sodium hydrogen carbonate, sodium hydrogen carbonate], for which the “Ratio (%) of decrease” value in the test on Tomato (dilution ratio 100 (10 g/L)) worked out at 12.8%; with Mikan (dilution ratio 100 (10 g/L)) it was 11.4%. Moreover, the “Estimated amount (g) of transpiration per 100 g of fruit on date of application” value in test [3] (5 days later) is recorded as 12.4 g; in test [3] (9 days later) it was 21.7 g; in test [3] (12 days later), 27.3 g; in test [3] (14 days later), 31.5 g; in test [3] (16 days later), 35.6 g; in test [3] (19 days later) it was 41.5 g. Moreover, the “Mass (g) of fruit per 100 g of fruit” value in test [3] (5 days later (applied Apr. 27)) was 87.6 g; in test [3] (9 days later), 78.3 g; in test [3] (12 days later) it was 72.7 g; in test [3] (14 days later), 68.5 g; in test [3] (16 days later), 64.4 g; in test [3] (19 days later), 58.5 g. Also, in test [1], the “Estimated transpiration ratio (%) Average” value is 30%. The “Estimated transpiration ratio (%) First” value in test [1] is given as 33%. Besides, the “Estimated transpiration ratio (%) Second” value in test [1] was 28%.
Turning to `O=C([O-])CC(O)(CC(=O)[O-])C(=O)[O-].[K+].[K+].[K+]` [Tripotassium citrate], in test [1], the “Estimated transpiration ratio (%) Average” value is reported as 30%, the “Estimated transpiration ratio (%) First” value was 32% and the “Estimated transpiration ratio (%) Second” value is reported as 28%.
For the compound `O=P([O-])([O-])[O-].[K+].[K+].[K+]` [Tripotassium phosphate, tripotassium phosphate], the “Estimated amount (g) of transpiration per 100 g of fruit on date of application” value in test [3] (5 days later) is reported as 15.9 g; in test [3] (9 days later) it was 26.3 g; in test [3] (12 days later) it was 33.1 g; in test [3] (14 days later), 37.6 g; in test [3] (16 days later), 41.1 g; in test [3] (19 days later), 47.4 g. The “Mass (g) of fruit per 100 g of fruit” value in test [3] (5 days later (applied Apr. 27)) worked out at 84.1 g; in test [3] (9 days later), 73.7 g; in test [3] (12 days later), 66.9 g; in test [3] (14 days later), 62.4 g; in test [3] (16 days later) it was 58.3 g; in test [3] (19 days later), 52.8 g.
